Data on 1 compound can be found in patent US20060122264A1, “Stem cell invasion inhibitor” (Yasumi Uchida, etal, priority 2003, published 2006).

Test [1] concerns human coronary artery smooth muscle cells. The test is described as follows: Proliferation of human coronary artery smooth muscle cells. In kind it is cell-based. The conditions noted are these: Smooth muscle cells. On the procedure:
(§1) Human umbilical vein endothelial cells (HUBEC) (1×10^5/cm^2) were inoculated into a medium containing MCDB-104, 10% FBS, ECGF (100 ng/mL), EGF (10 ng/mL), and heparin (100 ng/mL), and phenolsulfonphthalein or bromosulfophthalein was added to the medium, followed by culturing for three days. Thereafter, the resultant cells were counted, and the number of the cells was compared with that in the case where no drug was added to the medium. In a manner similar to that described above, human coronary artery smooth muscle cells (1×10^5/cm^2) were cultured in a medium containing MCDB-104, 10% FBS, and EGF (10 ng/mL) for three days, and the resultant cells were counted.

Test [2] has as its system Human umbilical vein endothelial cells (HUBEC). Nature of the test: Proliferation of human vascular endothelial cells. The format is cell-based. The conditions noted are these: Endothelial cells. On the procedure: as §1
The conditions of test [3]: International Publication WO 01/93871; cited from earlier work.
Test [4] has as its system human coronary artery smooth muscle cells. The conditions noted are these: International Publication WO 01/93871; cited from earlier work.

Marks after values point to notes of the source that are not given here.

On to `Cc1cc(-c2ccc(/N=N/c3ccc4c(S(=O)(=O)O)cc(S(=O)(=O)O)c(N)c4c3O)c(C)c2)ccc1/N=N/c1ccc2c(S(=O)(=O)O)cc(S(=O)(=O)O)c(N)c2c1O` [Evans Blue], for which the “number of cells after culturing for three days” value is 0.07*** in test [1] (Concentration (mol) 10^−4); 0.34** in test [1] (Concentration (mol) 10^−5); 1.00* in test [1] (Concentration (mol) 10^−6); 3.50* in test [1] (Concentration (mol) 10^−7); 3.89 in test [1] (Concentration (mol) 10^−8); 0.12** in test [2] (Concentration (mol) 10^−4). The “number of cells after culturing for three days” value is reported as 0.98* in test [2] (Concentration (mol) 10^−5), 1.54* in test [2] (Concentration (mol) 10^−6), 3.11* in test [2] (Concentration (mol) 10^−7) and 3.50 in test [2] (Concentration (mol) 10^−8). Also, in test [3], the antithrombotic effect result is reported as “antithrombotic effect”. Further, the “effect of inhibiting proliferation of vascular smooth muscle cells” value in test [4] is reported as “has the effect of inhibiting proliferation of vascular smooth muscle cells”.
